Experimental data as given in patent publication US8962329B2, “Gene cluster” (Shanghai Institute of Organic Chemistry, Chinese Academy of …, priority 2008, dated 2015).

Legend:
SfaA = test: AMP PPi assay of the putative meta-hydroxylase SfaA expressed in E. coli; type: biochemical, Streptomyces sp. A92-308110 (S. flaveolus)
Excerpt: Traditional phenylalanine/tyrosine/tryptophan hydroxylation systems all rely on an electrophilic substitution reaction to realize hydroxylation in the electron-rich regions of aromatic systems. On the contrary, the meta-hydroxylation of phenylalanine occurs at the relatively electron-poor meta position of phenylalanine. […] The putative meta-hydroxylase, SfaA, was expressed in E. coli and isolated using standard methods.

SfaR = test: in vitro activity of purified His-tagged SfaR (reduction / reductive carboxylation) on acyl substrates; type: biochemical, Streptomyces sp A92-309110 (S. flaveolus)
Excerpt: To validate the central role of SfaR for unusual building block supply in the proposed pathway, we first inactivated sfaR by in-frame deletion. […] Secondly, we heterologously expressed and purified the N-terminal 6× His-tagged SfaR to near homogeneity for in vitro studies. As expected, in the presence of NADPH and bicarbonate, crotonyl-S-CoA (FIG. 7, 4) was efficiently converted by SfaR to the major product ethylmalonyl-S-CoA (FIG. 7, 5) along with the shunt product butyryl-S-CoA (FIG. 7, 7). […] To exclude the possibility that the reaction directly occurs on the ACP, SfaO was expressed and purified as a N-terminal 6×His-tagged derivative. […] Thirdly, to detect the substrate flexibility of SfaR, we synthesized the 5-carbon substrate pentenyl-S-CoA.

MLR = conditions: compared with SFA; cited from earlier work

In the case of `CC(=O)NCCSC(=O)C(N)Cc1ccccc1` (centres unmarked), the “activity of SfaA on the substrate” value (SfaA) is reported as “did show activity”.
In the case of `C/C=C/C(=O)SCCNC(=O)CCNC(=O)[C@H](O)C(C)(C)COP(=O)(O)OP(=O)(O)OC[C@H]1O[C@@H](n2cnc3c(N)ncnc32)[C@H](O)[C@@H]1OP(=O)(O)O` [crotonyl-S-CoA], the Km (SfaR; substrate crotonyl-S-CoA, SfaR, NADPH) is reported as 840 µM.
`CC/C=C/C(=O)SCCNC(=O)CCNC(=O)[C@H](O)C(C)(C)COP(=O)(O)OP(=O)(O)OC[C@H]1O[C@@H](n2cnc3c(N)ncnc32)[C@H](O)[C@@H]1OP(=O)(O)O` [pentenyl-S-CoA] gave a Km (SfaR; pentenyl-S-CoA in reductively producing pentanoyl-S-CoA) of 1400 µM.
For `N[C@@H](Cc1ccccc1)C(=O)O` [phenylalanine], the “activity of SfaA on the substrate” value (SfaA) was “no activity”.
In the case of sanglifehrin B, the “immunosuppressive activity in MLR assays” value (MLR) is listed as “higher immunosuppressive activity than SFA”.
